Biological target: human ADRA2C receptor (Homo sapiens (Human), UniProt P18825)
Assay: In vitro activity assay to determine the inhibition of recombinant ADRA2C (CHO-K1 cells, aequorin bioluminescence)
Type: cell-based
Conditions: inhibition of noradrenaline-induced bioluminescence signal; some mean values from multiple determinations; read-out: ARα2C IC50
Protocol: B-2. In Vitro Activity Assay to Determine the Inhibition of Recombinant ADRA2C
The human ADRA2C receptor belongs to the G protein(guanine-dependent protein)-coupled receptors, the main function of which is the transduction of signals into the interior of the cell.
The investigations of the inhibition of the recombinant human ADRA2C receptors were carried out with stabily transfected CHO-K1 cells coexpressing the Gaq protein and the calcium-sensitive photoprotein aequorin. In this recombinant system, binding of the agonists noradrenaline to the ADRA2C receptor leads, after activation of a signal cascade, to calcium release from intracellular stores, which is detected by the intracellular calcium sensor aequorin as a bioluminescent signal. The method is described in detail in the reference below. [Wunder F., Kalthof B., Muller T., Hueser J. Functional Cell-Based Assays in Microliter Volumes for Ultra-High Throughput Screening. Combinatorial Chemistry & High Throughput Screening, Volume 11, Number 7, 2008, pp. 495-504(10). doi.org/10.2174/138620708785204054]
The activity of the test substances was determined via their ability to inhibit the agonist-induced increase of the bioluminescence signal. The concentration which can block half of this signal increase is referred to as IC50. The IC50 value is calculated using the 4 parameter logistic function (Hill function):
Top=upper threshold, Bottom=lower threshold, Slope=slope, IC50=turning point

human ADRA2C receptor, sequence (P18825 whole entry): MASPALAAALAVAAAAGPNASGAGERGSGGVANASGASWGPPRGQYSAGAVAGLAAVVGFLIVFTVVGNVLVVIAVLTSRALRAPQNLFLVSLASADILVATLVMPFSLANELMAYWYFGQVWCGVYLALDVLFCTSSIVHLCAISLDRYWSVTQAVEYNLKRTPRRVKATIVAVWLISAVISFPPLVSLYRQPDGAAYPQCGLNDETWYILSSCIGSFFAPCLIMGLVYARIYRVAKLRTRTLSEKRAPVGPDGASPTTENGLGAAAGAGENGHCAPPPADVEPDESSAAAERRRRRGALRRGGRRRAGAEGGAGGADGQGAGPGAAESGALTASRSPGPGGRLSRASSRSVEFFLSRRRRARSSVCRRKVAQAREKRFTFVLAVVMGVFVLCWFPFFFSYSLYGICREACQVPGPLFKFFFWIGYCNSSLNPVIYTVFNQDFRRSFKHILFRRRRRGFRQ

Question: With C[C@@H]1CCCN(C2CCN(c3ncc(C(=O)NCc4ncc(F)cc4F)s3)CC2F)C1 (mixture of isomers) [Example 50, diamix-N-[(3,5-Difluoropyridin-2-yl)methyl]-2-[(3R)-3′-fluoro-3-methyl[1,4′-bipiperidin]-1′-yl]-1,3-thiazole-5-carboxamide] as the compound, how does the IC50 read?
Answer: Its IC50 is 73.5 nM.

Question: With CC(NC(=O)c1cnc(N2CCC(N3CCC[C@@H](C)C3)CC2)s1)c1ncc(F)cc1F (mixture of isomers) [Example 55, diamix-N-[1-(3,5-Difluoropyridin-2-yl)ethyl]-2-[(3R)-3-methyl[1,4′-bipiperidin]-1′-yl]-1,3-thiazole-5-carboxamide] as the compound, how does the IC50 read?
Answer: The IC50 was 150 nM.

Question: C[C@@H]1CCCN(C2CCN(c3nc(C(=O)NCc4ncc(F)cc4F)cs3)CC2F)C1 (mixture of isomers) [Example 111, diamix-N-[(3,5-Difluoropyridin-2-yl)methyl]-2-[(3R)-3′-fluoro-3-methyl[1,4′-bipiperidin]-1′-yl]-1,3-thiazole-4-carboxamide] was tested. Which IC50 did it give?
Answer: Its IC50 is 0.49 nM.

Question: C[C@@H]1CCCN(C2CCN(c3nc(C(=O)NCc4ncc(F)cc4F)co3)CC2F)C1 (mixture of isomers) [Example 112, diamix-N-[(3,5-Difluoropyridin-2-yl)methyl]-2-[(3R)-3′-fluoro-3-methyl[1,4′-bipiperidin]-1′-yl]-1,3-oxazole-4-carboxamide] was tested. Which IC50 did it give?
Answer: Its IC50 is 1.2 nM.

Question: How did the IC50 turn out when C[C@@H]1CCCN(C2CCN(c3ncc(C(=O)NCc4cc(Cl)ccc4F)s3)CC2F)C1 (mixture of isomers) [Example 113, diamix-N-(5-Chloro-2-fluorobenzyl)-2-[(3R)-3′-fluoro-3-methyl[1,4′-bipiperidin]-1′-yl]-1,3-thiazole-5-carboxamide] was run?
Answer: The IC50 was 0.61 nM.

Question: For CC(NC(=O)c1cnc(N2CCC(N3CCC[C@@H](C)C3)C(F)C2)s1)c1cc(F)ccc1F (mixture of isomers) [Example 117, diamix-N-[1-(2,5-Difluorophenyl)ethyl]-2-[(3R)-3′-fluoro-3-methyl[1,4′-bipiperidin]-1′-yl]-1,3-thiazole-5-carboxamide], which IC50 is on record?
Answer: Its IC50 is 0.65 nM.

Question: Which IC50 does the source give for O=C(NCc1ncc(F)cc1F)c1cnc(N2CCC(N3CCCC(CC4CC4)C3)CC2)s1 (racemic) [Example 3, 2-[3-(Cyclopropylmethyl)[1,4′-bipiperidin]-1′-yl]-N-[(3,5-difluoropyridin-2-yl)methyl]-1,3-thiazole-5-carboxamide (racemate)] here?
Answer: The IC50 was 2.9 nM.

Question: For O=C(NCc1ncc(F)cc1F)c1cnc(N2CCC(N3CCCC(C(F)F)C3)CC2)s1 (racemic) [Example 4, 2-[3-(difluoromethyl)[1,4′-bipiperidin]-1′-yl]-N-[(3,5-difluoropyridin-2-yl)methyl]-1,3-thiazole-5-carboxamide (racemate)], which IC50 is on record?
Answer: Its IC50 is 169 nM.

Question: How did the IC50 turn out when O=C(NCc1ncc(F)cc1F)c1cnc(N2CCC(N3CCCC(C(F)(F)F)C3)CC2)s1 (racemic) [Example 5, N-[(3,5-difluoropyridin-2-yl)methyl]-2-[3-(trifluoromethyl)[1,4′-bipiperidin]-1′-yl]-1,3-thiazole-5-carboxamide (racemate)] was run?
Answer: The IC50 was 335 nM.

Question: How did the IC50 turn out when O=C(NCc1ncc(F)cc1F)c1cnc(N2CCC(N3CCCC(CF)C3)CC2)s1 (racemic) [Example 6, N-[(3,5-difluoropyridin-2-yl)methyl]-2-[3-(fluoromethyl)[1,4′-bipiperidin]-1′-yl]-1,3-thiazole-5-carboxamide (racemate)] was run?
Answer: Its IC50 is 335 nM.

Question: How did the IC50 turn out when O=C(NCc1ncc(F)cc1F)c1cnc(N2CCC(N3CCCC(OCC4CC(F)(F)C4)C3)CC2)s1 (racemic) [Example 7, 2-{3-[(3,3-difluorocyclobutyl)methoxy][1,4′-bipiperidin]-1′-yl}-N-[(3,5-difluoropyridin-2-yl)methyl]-1,3-thiazole-5-carboxamide (racemate)] was run?
Answer: Its IC50 is 49.6 nM.

Question: How did the IC50 turn out when O=C(NCc1ncc(F)cc1F)c1cnc(N2CCC(N3CCCC(OC(F)F)C3)CC2)s1 (racemic) [Example 16, 2-[3-(Difluoromethoxy)[1,4′-bipiperidin]-1′-yl]-N-[(3,5-difluoropyridin-2-yl)methyl]-1,3-thiazole-5-carboxamide (racemate)] was run?
Answer: Its IC50 is 2000 nM.

Question: Which IC50 does the source give for CCC1CCCN(C2CCN(c3ncc(C(=O)NCc4ncc(F)cc4F)s3)CC2)C1 (racemic) [Example 17, N-[(3,5-Difluoropyridin-2-yl)methyl]-2-(3-ethyl[1,4′-bipiperidin]-1′-yl)-1,3-thiazole-5-carboxamide (racemate)] here?
Answer: The IC50 was 26.5 nM.

Question: Which IC50 does the source give for COCC1CCCN(C2CCN(c3ncc(C(=O)NCc4ncc(F)cc4F)s3)CC2)C1 (racemic) [Example 48, rac-N-[(3,5-Difluoropyridin-2-yl)methyl]-2-[3-(methoxymethyl)[1,4′-bipiperidin]-1′-yl]-1,3-thiazole-5-carboxamide] here?
Answer: Its IC50 is 17 nM.

Question: For CC1CCCN(C2CCN(c3ncc(C(=O)NCc4ncc(F)cc4F)s3)CC2)CC1 (racemic) [Example 53, rac-N-[(3,5-Difluoropyridin-2-yl)methyl]-2-[4-(4-methylazepan-1-yl)piperidin-1-yl]-1,3-thiazole-5-carboxamide], which IC50 is on record?
Answer: Its IC50 is 110 nM.

Question: For CC1CCCCN(C2CCN(c3ncc(C(=O)NCc4ncc(F)cc4F)s3)CC2)C1 (racemic) [Example 54, rac-N-[(3,5-Difluoropyridin-2-yl)methyl]-2-[4-(3-methylazepan-1-yl)piperidin-1-yl]-1,3-thiazole-5-carboxamide], which IC50 is on record?
Answer: The IC50 was 230 nM.

Question: With O=C(NCc1ncc(F)cc1F)c1cnc(N2CCC(N3CCCC(COCC(F)(F)F)C3)CC2)s1 (racemic) [Example 59, rac-N-[(3,5-Difluoropyridin-2-yl)methyl]-2-{3-[(2,2,2-trifluoroethoxy)methyl][1,4′-bipiperidin]-1′-yl}-1,3-thiazole-5-carboxamide] as the compound, how does the IC50 read?
Answer: Its IC50 is 11 nM.

Question: For O=C(NCc1ncc(F)cc1F)c1cnc(N2CCC(N3CCCC(COCC4(CF)CC4)C3)CC2)s1 (racemic) [Example 60, rac-N-[(3,5-Difluoropyridin-2-yl)methyl]-2-[3-({[1-(fluoromethyl)cyclopropyl]methoxy}methyl)[1,4′-bipiperidin]-1′-yl]-1,3-thiazole-5-carboxamide], which IC50 is on record?
Answer: The IC50 was 74 nM.

Question: For O=C(NCc1ncc(F)cc1F)c1cnc(N2CCC(N3CCCC(COCC4(C(F)F)CC4)C3)CC2)s1 (racemic) [Example 61, rac-2-[3-({[1-(Difluoromethyl)cyclopropyl]methoxy}methyl)[1,4′-bipiperidin]-1′-yl]-N-[(3,5-difluoropyridin-2-yl)methyl]-1,3-thiazole-5-carboxamide], which IC50 is on record?
Answer: Its IC50 is 87 nM.

Question: How did the IC50 turn out when O=C(NCc1ncc(F)cc1F)c1cnc(N2CCC(N3CCCC(COCC4(C(F)(F)F)CC4)C3)CC2)s1 (racemic) [Example 62, rac-N-[(3,5-Difluoropyridin-2-yl)methyl]-2-[3-({[1-(trifluoromethyl)cyclopropyl]methoxy}methyl)[1,4′-bipiperidin]-1′-yl]-1,3-thiazole-5-carboxamide] was run?
Answer: The IC50 was 130 nM.

Question: For O=C(NCc1ncc(F)cc1F)c1cnc(N2CCC(N3CCCC4(C3)CC4(F)F)CC2)s1 (racemic) [Example 65, rac-2-[4-(1,1-Difluoro-5-azaspiro[2.5]octan-5-yl)piperidin-1-yl]-N-[(3,5-difluoropyridin-2-yl)methyl]-1,3-thiazole-5-carboxamide], which IC50 is on record?
Answer: Its IC50 is 4.5 nM.

Question: Which IC50 does the source give for O=C(NCc1ncc(F)cc1F)c1cnc(N2CCC(N3CCCC(OCC4CC4)C3)CC2)s1 (racemic) [Example 67, rac-2-[3-(Cyclopropylmethoxy)[1,4′-bipiperidin]-1′-yl]-N-[(3,5-difluoropyridin-2-yl)methyl]-1,3-thiazole-5-carboxamide] here?
Answer: Its IC50 is 2.2 nM.

From patent publication US20240000767A1, “COMBINATION OF AN ALPHA2-ADRENOCEPTOR SUBTYPE C (ALPHA-2C) ANTAGONIST WITH A TASK1/3 CHANNEL BLOCKER FOR THE TREATMENT OF SLEEP APNEA” (Bayer Aktiengesellschaft, priority 2020, published 2024)
